What is called MIC is the smallest concentration in the dilution series that meets the test's criterion for growth inhibition. A low value points to greater potency.

In the assay the test system is Mycobacterium tuberculosis. Nature of the assay: Antimycobacterial activity against multi drug-resistant Mycobacterium tuberculosis. It counts as functional.

≈ marks a conversion by molar mass, not a printed value.

On to `Fc1ccc2[nH]c3c(c2c1)SC(c1ccccc1)C3` (stereo not given), for which 12.5 µg/mL (≈ 46.4 µM) was the least that counted as inhibitory (MIC). Then `Fc1ccc2[nH]c3c(c2c1)SC(c1ccc(Cl)cc1)C3` (stereo not given), with 1.56 µg/mL (≈ 5.14 µM). The compound `Cc1ccc(C2Cc3[nH]c4ccc(F)cc4c3S2)cc1` (stereo not given) returned an MIC of 1.56 µg/mL (≈ 5.51 µM). In turn, `Clc1ccc2[nH]c3c(c2c1)SC(c1ccccc1Cl)C3` (stereo not given) gave an MIC of 1.56 µg/mL (≈ 4.87 µM). Then `CC(C)c1ccc(C2Cc3[nH]c4ccc(Cl)cc4c3S2)cc1` (stereo not given), with 0.78 µg/mL (≈ 2.38 µM). Then `Fc1ccc2[nH]c3c(c2c1)SC(c1ccccc1Cl)C3` (stereo not given), with 1.56 µg/mL (≈ 5.14 µM); and `CC(C)c1ccc(C2Cc3[nH]c4ccc(F)cc4c3S2)cc1` (stereo not given), with 0.4 µg/mL (≈ 1.28 µM). Then `Clc1ccc(C2Cc3[nH]c4ccccc4c3S2)c(Cl)c1` (stereo not given), with 0.78 µg/mL (≈ 2.44 µM); and `Fc1ccc(C2Cc3[nH]c4ccc(Cl)cc4c3S2)cc1` (stereo not given), with 0.78 µg/mL (≈ 2.57 µM). `Cc1ccc(C2Cc3[nH]c4ccccc4c3S2)cc1` (stereo not given) displayed a minimal inhibitory concentration (MIC) of 12.5 µg/mL (≈ 47.1 µM). Then `Brc1ccccc1C1Cc2[nH]c3ccccc3c2S1` (stereo not given), with 3.13 µg/mL (≈ 9.48 µM). In turn, `Clc1ccc(C2Cc3[nH]c4ccc(Cl)cc4c3S2)c(Cl)c1` (stereo not given) returned a minimum inhibitory concentration (MIC) of 0.4 µg/mL (≈ 1.13 µM). `Cc1ccc(C2Cc3[nH]c4ccc(Cl)cc4c3S2)cc1` (stereo not given) registered an MIC of 6.25 µg/mL (≈ 20.8 µM). Then `O=[N+]([O-])c1cccc(C2Cc3[nH]c4ccccc4c3S2)c1` (stereo not given), with 0.78 µg/mL (≈ 2.63 µM). Then `CC(C)c1ccc(C2Cc3[nH]c4ccccc4c3S2)cc1` (stereo not given), with 0.4 µg/mL (≈ 1.36 µM). Turning to `Fc1ccc2[nH]c3c(c2c1)SC(c1ccc(Cl)cc1Cl)C3` (stereo not given), inhibition of growth (MIC) required 0.4 µg/mL (≈ 1.18 µM). Then `CC[C@@H](CO)NCCN[C@@H](CC)CO` [ETHAMBUTOL], with 12.5 µg/mL (≈ 61.2 µM). As to `NNC(=O)c1ccncc1` [ISONIAZID], the MIC is 1.56 µg/mL (≈ 11.4 µM).

Turning to `NC(=O)c1cnccn1` [PYRAZINAMIDE], the MIC is 50 µg/mL (≈ 406 µM). In turn, `CO[C@H]1/C=C/O[C@@]2(C)Oc3c(C)c(O)c4c(O)c(c(/C=N/N5CCN(C)CC5)c(O)c4c3C2=O)NC(=O)/C(C)=C\C=C\[C@H](C)[C@H](O)[C@@H](C)[C@@H](O)[C@@H](C)[C@H](OC(C)=O)[C@@H]1C` [RIFAMPIN] came in with a minimum inhibitory concentration (MIC) of 3.13 µg/mL (≈ 3.8 µM).

The values above are taken from ChEMBL document CHEMBL1151911, “A microwave-assisted facile regioselective Fischer indole synthesis and antitubercular evaluation of novel 2-aryl-3,4-dihydro-2H-thieno[3,2-b]indoles” (2009).
